The test system of this data set is olive seedlings. In words: Application via rigid tubes to olive seedlings under commercial nursery conditions. It counts as in vivo, Olea europaea L. As to conditions: 50 μM with HPC+glycerin. The procedure:
Experiments were performed in AGROGOLD nurseries under commercial nursery conditions, which include nethouse, 40% shed without temperature control. The tested formulations were applied in rigid tubes. […] The tube was sealed and fixed to the plant by cello tape. The tube was completely filled with ˜1 ml of the experimental formulation and then the top was covered with cotton (FIGS. 20A-20F). Each experiment included 10 olive plants for each treatment. The number of wake up buds was counted 75 days following application and the seedlings architecture, general growth and development were examined.
The bud growth effect of EGO10 (50 μM) or acetone control, each supplied together with HPC+glycerin on the stem of the olive cuttings was tested under the nursery conditions.

SMILES strings stand for the structures.

In the case of `CC1=C[C@H](O/C=C2\Cc3c(n(C)c4ccccc34)C2=O)OC1=O` [EGO10], the “application site (bark and vascular system) after removal of the apparatus” value was “unharmed and functional”. In addition, the seedling outgrowth result (75 days) is recorded as “not inhibited”. Moreover, the “number of wake up buds (bud outgrowth)” value (rigid tubes, 75 days, vs acetone+HPC+glycerin) is “inhibits bud outgrowth significantly”. Also, the plant architecture result (control seedlings bushy) was “one or two leading branches”.

The values are drawn from US20180235213A1, “PLANT HORMONE APPLICATION” (The State of Israel Ministry of Agriculture & Rural …, priority 2015, published 2018).
